One test deals with human SGLT1 (Homo sapiens (Human), UniProt P13866). Put plainly: SGLT1 assay: analogous 14C-AMG uptake test with hSGLT1 expressed in CHO-K1 or HEK293 cells. Format: cell-based. The note with it: n = 1-4. As for the experimental part: (§1) The SGLT-2 assay is carried out as follows: CHO-hSGLT2 cells are cultivated in Ham's F12 Medium (BioWhittaker) with 10% foetal calf serum and 250 μg/mL zeocin (Invitrogen), and HEK293-hSGLT2 cells are cultivated in DMEM medium with 10% foetal calf serum and 250 μg/mL zeocin (Invitrogen). The cells are detached from the culture flasks by washing twice with PBS and subsequently treating with trypsin/EDTA. After the addition of cell culture medium the cells are centrifuged, resuspended in culture medium and counted in a Casy cell counter. Then 40,000 cells per well are seeded into a white, 96-well plate coated with poly-D-lysine and incubated overnight at 37° C., 5% CO2. The cells are washed twice with 250 μl of assay buffer (Hanks Balanced Salt Solution, 137 mM NaCl, 5.4 mM KCl, 2.8 mM CaCl2, 1.2 mM MgSO4 and 10 mM HEPES (pH 7.4), 50 μg/mL of gentamycin). 250 μl of assay buffer and 5 μl of test compound are then added to each well and the plate is incubated for a further 15 minutes in the incubator. 5 μl of 10% DMSO are used as the negative control. The reaction is started by adding 5 μl of 14 C— AMG (0.05 μCi) to each well. After 2 hours' incubation at 37° C., 5% CO2, the cells are washed again with 250 μl of PBS […] and then lysed by the addition of 25 μl of 0.1 N NaOH (5 min. at 37° C.). 200 μl of MicroScint20 (Packard) are added to each well and incubation is continued for a further 20 min at 37° C. After this incubation the radioactivity of the ^14C-AMG absorbed is measured in a Topcount (Packard) using a ^14C scintillation program.
human SGLT1, sequence (P13866 whole entry): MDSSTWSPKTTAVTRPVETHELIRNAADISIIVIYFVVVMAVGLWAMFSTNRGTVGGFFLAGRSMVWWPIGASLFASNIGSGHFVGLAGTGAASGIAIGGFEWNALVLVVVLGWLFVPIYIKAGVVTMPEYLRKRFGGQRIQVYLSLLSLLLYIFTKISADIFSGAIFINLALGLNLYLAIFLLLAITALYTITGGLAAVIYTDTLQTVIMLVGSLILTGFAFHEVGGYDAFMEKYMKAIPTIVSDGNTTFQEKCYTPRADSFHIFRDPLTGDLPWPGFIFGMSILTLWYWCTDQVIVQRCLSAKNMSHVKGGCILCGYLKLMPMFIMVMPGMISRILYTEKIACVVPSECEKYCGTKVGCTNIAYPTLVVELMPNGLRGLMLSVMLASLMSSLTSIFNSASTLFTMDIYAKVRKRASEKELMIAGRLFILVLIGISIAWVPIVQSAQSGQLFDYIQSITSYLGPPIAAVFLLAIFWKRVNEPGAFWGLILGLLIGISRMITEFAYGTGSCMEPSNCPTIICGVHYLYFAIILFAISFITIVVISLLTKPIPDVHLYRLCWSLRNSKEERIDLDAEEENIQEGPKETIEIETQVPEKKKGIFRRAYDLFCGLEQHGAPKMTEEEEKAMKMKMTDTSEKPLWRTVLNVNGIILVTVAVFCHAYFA
To determine the selectivity with respect to human SGLT1 an analogous test is set up in which the cDNA for hSGLTI (Genbank Ace. No. NM000343) instead of hSGLT2 cDNA is expressed in CHO-K1 or HEK293 cells.
The title compounds of the Examples were evaluated in the above described assays and the results of which are collated in Table 1.

Test [1] deals with human sodium glucose co-transporter 2 (SGLT2) (Homo sapiens (Human), UniProt P31639). The experiment in a line: SGLT-2 assay: 14C-AMG uptake in CHO-hSGLT2 or HEK-hSGLT2 cells. The class given is cell-based. To be noted: n = 1-4. As for the experimental part:
These cell lines transport ^14C-labelled alpha-methyl-glucopyranoside (^14C-AMG, Amersham) into the interior of the cell in sodium-dependent manner.
as §1

Setting [2] is: title compounds of the Examples (prodrugs).

The values below come from patent US8614195B2, “Glycoside derivatives and uses thereof” (Novartis AG, priority 2011, dated 2013).

Molecules are shown by their SMILES.

human sodium glucose co-transporter 2 (SGLT2), sequence (P31639 whole entry): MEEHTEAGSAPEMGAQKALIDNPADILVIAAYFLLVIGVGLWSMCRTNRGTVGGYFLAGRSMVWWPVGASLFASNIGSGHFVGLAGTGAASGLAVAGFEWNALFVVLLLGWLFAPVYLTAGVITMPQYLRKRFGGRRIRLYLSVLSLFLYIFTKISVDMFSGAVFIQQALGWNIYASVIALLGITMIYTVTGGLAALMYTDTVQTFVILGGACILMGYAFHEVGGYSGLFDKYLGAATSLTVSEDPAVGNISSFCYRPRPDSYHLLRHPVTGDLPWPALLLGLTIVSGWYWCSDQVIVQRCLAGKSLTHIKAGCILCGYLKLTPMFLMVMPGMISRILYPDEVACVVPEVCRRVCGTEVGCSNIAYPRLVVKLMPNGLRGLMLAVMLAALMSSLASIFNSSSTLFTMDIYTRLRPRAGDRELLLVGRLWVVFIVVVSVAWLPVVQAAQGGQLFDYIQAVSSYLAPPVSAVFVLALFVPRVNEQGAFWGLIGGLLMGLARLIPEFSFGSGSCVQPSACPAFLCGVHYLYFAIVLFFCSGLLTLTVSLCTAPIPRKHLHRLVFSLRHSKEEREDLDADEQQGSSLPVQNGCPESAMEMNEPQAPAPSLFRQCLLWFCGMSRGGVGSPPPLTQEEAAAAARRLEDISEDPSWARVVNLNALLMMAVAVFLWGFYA

`CCc1ccc([C@@H]2O[C@H](CO)[C@@H](O)[C@H](O)[C@H]2O)cc1Cc1ccc2c(c1)OCCO2` [(2S,3R,4R,5S,6R)-2-[3-(2,3-Dihydro-benzo[1,4]dioxin-6-ylmethyl)-4-ethyl-phenyl]-6-hydroxymethyl-tetrahydro-pyran-3,4,5-triol] gave an IC50 against human SGLT1 of 22 nM. Turning to `OC[C@H]1O[C@@H](c2ccc(C3CC3)c(Cc3ccc4c(c3)OCCO4)c2)[C@H](O)[C@@H](O)[C@@H]1O` [(2S,3R,4R,5S,6R)-2-[4-Cyclopropyl-3-(2,3-dihydro-benzo[1,4]dioxin-6-ylmethyl)-phenyl]-6-hydroxymethyl-tetrahydro-pyran-3,4,5-triol], the IC50 was 2.2 nM in test [1] (parent compound of the prodrugs) and 9 nM at human SGLT1.

Regarding `CCc1ccc([C@@H]2O[C@H](COC(=O)[C@H](N)C(C)C)[C@@H](O)[C@H](O)[C@H]2O)cc1Cc1ccc2c(c1)OCCO2` [Example 1, (R)-2-Amino-3-methyl-butyric acid (2R,3S,4R,5R,6S)-6-[3-(2,3-dihydro-benzo[1,4]dioxin-6-ylmethyl)-4-ethyl-phenyl]-3,4,5-trihydroxy-tetrahydro-pyran-2-ylmethyl ester], the IC50 was determined as 22.5 nM in test [1] (setting [2]) and 409 nM on human SGLT1 (setting [2]). Consider `COC(=O)OC[C@H]1O[C@@H](c2ccc(C3CC3)c(Cc3ccc4c(c3)OCCO4)c2)[C@H](O)[C@@H](O)[C@@H]1O` [Example 2, carbonic acid (2R,3S,4R,5R,6S)-6-[4-cyclopropyl-3-(2,3-dihydro-benzo[1,4]dioxin-6-ylmethyl)-phenyl]-3,4,5-trihydroxy-tetrahydro-pyran-2-ylmethyl ester methyl ester], for which the IC50 in test [1] (setting [2]) worked out at 17.5 nM; on human SGLT1 (setting [2]), 35 nM. `CCOC(=O)OC[C@H]1O[C@@H](c2ccc(C3CC3)c(Cc3ccc4c(c3)OCCO4)c2)[C@H](O)[C@@H](O)[C@@H]1O` [Example 2a, Carbonic acid (2R,3S,4R,5R,6S)-6-[4-cyclopropyl-3-(2,3-dihydro-benzo[1,4]dioxin-6-ylmethyl)-phenyl]-3,4,5-trihydroxy-tetrahydro-pyran-2-ylmethyl ester ethyl ester]: the half-maximal inhibitory concentration (IC50) in test [1] (setting [2]) was found to be 97 nM; at human SGLT1 (setting [2]) it was 308 nM. On the same counts, the results for `CC(C)COC(=O)OC[C@H]1O[C@@H](c2ccc(C3CC3)c(Cc3ccc4c(c3)OCCO4)c2)[C@H](O)[C@@H](O)[C@@H]1O` [Example 2b, Carbonic acid (2R,3S,4R,5R,6S)-6-[4-cyclopropyl-3-(2,3-dihydro-benzo[1,4]dioxin-6-ylmethyl)-phenyl]-3,4,5-trihydroxy-tetrahydro-pyran-2-ylmethyl ester isobutyl ester] are 186 nM and 338 nM.

Consider `CCOC(=O)OC[C@H]1O[C@@H](c2ccc(CC)c(Cc3ccc4c(c3)OCCO4)c2)[C@H](O)[C@@H](O)[C@@H]1O` [Example 2c, Carbonic acid (2R,3S,4R,5R,6S)-6-[3-(2,3-dihydro-benzo[1,4]dioxin-6-ylmethyl)-4-ethyl-phenyl]-3,4,5-trihydroxy-tetrahydro-pyran-2-ylmethyl ester ethyl ester], for which the half-inhibitory concentration (IC50) in test [1] (setting [2]) turned out to be 27 nM; at human SGLT1 (setting [2]), 197 nM. On the same counts, the results for `CCc1ccc([C@@H]2O[C@H](COC(=O)OCC3CC4CCC3C4)[C@@H](O)[C@H](O)[C@H]2O)cc1Cc1ccc2c(c1)OCCO2` (stereo partly drawn) [Example 2f, Carbonic acid bicyclo[2.2.1]hept-2-ylmethyl ester (2R,3S,4R,5R,6S)-6-[3-(2,3-dihydro-benzo[1,4]dioxin-6-ylmethyl)-4-ethyl-phenyl]-3,4,5-trihydroxy-tetrahydro-pyran-2-ylmethyl ester] are 143 nM and 3440 nM. As for `CCc1ccc([C@@H]2O[C@H](COC(=O)O[C@@H](C)c3ccccc3)[C@@H](O)[C@H](O)[C@H]2O)cc1Cc1ccc2c(c1)OCCO2` [Example 2g, Carbonic acid (2R,3S,4R,5R,6S)-6-[3-(2,3-dihydro-benzo[1,4]dioxin-6-ylmethyl)-4-ethyl-phenyl]-3,4,5-trihydroxy-tetrahydro-pyran-2-ylmethyl ester (S)-1-phenyl-ethyl ester], the IC50 was determined as 567 nM in test [1] (setting [2]) and 1000 nM on human SGLT1 (setting [2]).

As to `CCOP(=O)(OCC)OC[C@H]1O[C@@H](c2ccc(CC)c(Cc3ccc4c(c3)OCCO4)c2)[C@H](O)[C@@H](O)[C@@H]1O` [Example 3, phosphoric acid (2R,3S,4R,5R,6S)-6-[3-(2,3-dihydro-benzo[1,4]dioxin-6-ylmethyl)-4-ethyl-phenyl]-3,4,5-trihydroxy-tetrahydro-pyran-2-ylmethyl ester diethyl ester], the figures for the half-maximal inhibitory concentration (IC50) (in test [1] (setting [2]); on human SGLT1 (setting [2])) were more than 1000 nM and 814 nM, respectively. On the same counts, the results for `CCOP(=O)(OCC)OC[C@H]1O[C@@H](c2ccc(C3CC3)c(Cc3ccc4c(c3)OCCO4)c2)[C@H](O)[C@@H](O)[C@@H]1O` [Example 3a, Phosphoric acid (2R,3S,4R,5R,6S)-6-[4-cyclopropyl-3-(2,3-dihydro-benzo[1,4]dioxin-6-ylmethyl)-phenyl]-3,4,5-trihydroxy-tetrahydro-pyran-2-yl methyl ester diethyl ester] are more than 1000 nM and 5650 nM.
